The text below walks through data of patent publication US20250129056A1, “PROCESS FOR PREPARING HISTONE DEMETHYLASE INHIBITORS” (Celgene Corporation, priority 2021, published 2025).

Structures are written as SMILES. Values after ≈ are worked out from the molar mass of the structure shown.

Series [1] can be described thus: Solubility observations in water and common organic solvents. It is filed as physicochemical.
Series [2] concerns KDM4 family of histone demethylases. As to conditions: cited from earlier work.
A short description of series [3]: Solubility of Compound 12 in common solvents (Table 5). It is filed as physicochemical. The following applies: organic solvent or mixture. The source says:
The crystallization of Compound 12 also required optimization. Studies were undertaken to find the optimal solvent system of iPrOH/MeTHF.

For the compound `CC(C)c1ccc(N(C)c2ccc3c(c2)OCC[C@H]3CNc2cnccc2C(=O)O)cc1` [Compound 8, 3-({[(4R)-7-{methyl[4-(propan-2-yl)phenyl]amino}-3,4-dihydro-2H-1-benzopyran-4-yl]methyl}amino)pyridine-4-carboxylic acid], the solubility (usually the dissolved amount per volume that the medium holds) is listed as “poor” in series [1] (in most common solvents); “undetectable” in series [1] (in water (low to neutral pH) and most common organic solvents, free acid); “poor” in series [1] (in water and most common organic solvents). Besides, the “inhibition of the KDM4 family of histone demethylases” value in series [2] was “selective inhibitor”.

As to `CC(C)(C)OC(=O)NC[C@@H]1CCOc2cc(Br)ccc21` [Compound 11], the solubility result in series [1] (in a number of common organic solvents including heptane) is “high”.

For `CC(C)c1ccc(N(C)c2ccc3c(c2)OCC[C@H]3CNC(=O)OC(C)(C)C)cc1` [Compound 12], the solubility in series [3] (solvent 1-PrOH) came out at 5 mg/mL (≈ 12.2 mM); in series [3] (solvent 2-MeTHF), 63 mg/mL (≈ 153 mM); in series [3] (solvent CPMe) it was 26 mg/mL (≈ 63.3 mM); in series [3] (solvent DMAc), 77 mg/mL (≈ 188 mM); in series [3] (solvent EtOAc), 22 mg/mL (≈ 53.6 mM); in series [3] (solvent HOAC) it was 20 mg/mL (≈ 48.7 mM). Besides, the solubility turned out to be 3 mg/mL (≈ 7.31 mM) in series [3] (solvent IPA); 14 mg/mL (≈ 34.1 mM) in series [3] (solvent IPAc); 28 mg/mL (≈ 68.2 mM) in series [3] (solvent MEK); 17 mg/mL (≈ 41.4 mM) in series [3] (solvent MIBK); 11 mg/mL (≈ 26.8 mM) in series [3] (solvent MTBE); 5 mg/mL (≈ 12.2 mM) in series [3] (solvent MeCN). Besides, the solubility in series [3] (solvent MeOH) is 3 mg/mL (≈ 7.31 mM); in series [3] (solvent THF), not below 150 mg/mL; in series [3] (solvent toluene), 27 mg/mL (≈ 65.8 mM); in series [1] (in a number of common solvents), “low”.
